Test results published in ChEMBL document CHEMBL3608202, “Biarylmethoxy 2-nitroimidazooxazine antituberculosis agents: Effects of proximal ring substitution and linker reversal on metabolism and efficacy” (Bioorg Med Chem Lett, 2015).
Converted amounts (≈) assume the structure as drawn.

What was measured:
[1] = test system: Mycobacterium tuberculosis; experiment: Antimycobacterial activity against Mycobacterium tuberculosis H37Rv after 11 days by LORA assay; format: functional; settings: 264 h
[2] = test system: Mycobacterium tuberculosis; experiment: Antimycobacterial activity against Mycobacterium tuberculosis H37Rv after 8 days by MABA assay; format: functional; settings: 192 h
Vero = experiment: Cytotoxicity against African green monkey Vero cells after 72 hrs; format: cell-based; settings: Chlorocebus sabaeus
[3] = Metabolic stability in human liver microsomes assessed as compound remaining after 1 hr; format: ADME; settings: read-out: Stability
[4] = Metabolic stability in CD1 mouse liver microsomes assessed as compound remaining after 1 hr; format: ADME; settings: read-out: Stability
Plasma = experiment: AUC (0 to infinity) in CD1 mouse plasma at 40 mg/kg, po; format: ADME, organism-based; set-up: dose 40 mg/kg, route oral, time infinity; settings: in vivo
Lung = experiment: AUC (0 to infinity) in CD1 mouse lung at 40 mg/kg, po; format: ADME, organism-based; set-up: dose 40 mg/kg, time infinity, route oral; settings: in vivo
[5] = Cmax in CD1 mouse plasma at 40 mg/kg, po; format: ADME, organism-based; set-up: dose 40 mg/kg, route oral
[6] = test system: Mycobacterium tuberculosis; experiment: Antimycobacterial activity against Mycobacterium tuberculosis infected in mouse assessed as fold reduction of colony forming units in lungs at 100 mg/kg, po administered for 5 days a week for 3 weeks beginning on day 70 post-infection relative to control; format: functional
[7] = Ratio of AUC (0 to infinity) in CD1 mouse lung to AUC (0 to infinity) in CD1 mouse plasma at 40 mg/kg, po; format: ADME, organism-based; settings: read-out: Ratio AUC
[8] = Half life in CD1 mouse lung at 40 mg/kg, po; format: ADME, organism-based
[9] = Half life in CD1 mouse plasma at 40 mg/kg, po; format: ADME, organism-based
[10] = Cmax in CD1 mouse lung at 40 mg/kg, po; format: ADME, organism-based; set-up: dose 40 mg/kg, route oral
[11] = test system: Mycobacterium tuberculosis; experiment: Antimycobacterial activity against Mycobacterium tuberculosis infected in mouse assessed as fold reduction of colony forming units in lungs at 100 mg/kg, po administered for 5 days a week for 3 weeks beginning on day 11 post-infection relative to pretomanid; format: functional
[12] = test system: Mycobacterium tuberculosis; experiment: Ratio of pretomanid MIC90 to compound MIC90 for Mycobacterium tuberculosis H37Rv after 11 days by LORA assay; format: functional
[13] = test system: Mycobacterium tuberculosis; experiment: Ratio of pretomanid MIC90 to compound MIC90 for Mycobacterium tuberculosis H37Rv after 8 days by MABA assay; format: functional

Row | Compound | MIC90 [1] | MIC90 [2] | IC50 (Vero) | remaining at 1 h [3] | remaining at 1 h [4] | also measured
1 | O=[N+]([O-])c1cn2c(n1)OC[C@@H](OCc1ccc(-c3ccc(OC(F)(F)F)cc3)cc1C(F)(F)F)C2 | 2.4 µM (≈ 1.21 µg/mL) | 0.65 µM (≈ 0.327 µg/mL) | > 128 µM | 100% | 96% | 
2 | O=[N+]([O-])c1cn2c(n1)OC[C@@H](OCc1ccc(-c3ccc(OC(F)(F)F)cc3)cc1F)C2 | 1.2 µM (≈ 0.544 µg/mL) | 0.017 µM (≈ 0.00771 µg/mL) | > 128 µM | 93% | 85% | AUC (Plasma): 202 µg/h/mL; AUC (Lung): 549 µg/h/mL; Cmax [5]: 6700 ng/mL; Ratio [6]: 2.2; Kp [7]: 2.7; half-life [8]: 28.1 h; half-life [9]: 22.3 h; Cmax [10]: 12100 ng/mL; Ratio [11]: 33
3 | O=[N+]([O-])c1cn2c(n1)OCC(COc1ccc(-c3ccc(F)cc3)cn1)C2 (stereo unspecified) | 25 µM (≈ 9.26 µg/mL) | 0.03 µM (≈ 0.0111 µg/mL) | > 128 µM |  |  | 
4 | O=[N+]([O-])c1cn2c(n1)OCC(COc1ccc(-c3ccc(F)cc3)nc1)C2 (stereo unspecified) | 2 µM (≈ 0.741 µg/mL) | 0.15 µM (≈ 0.0556 µg/mL) | > 128 µM |  |  | 
5 | O=[N+]([O-])c1cn2c(n1)OCC(COc1ccc(-c3ccc(C(F)(F)F)cc3)cn1)C2 (stereo unspecified) | 109 µM (≈ 45.8 µg/mL) | 0.04 µM (≈ 0.0168 µg/mL) | > 128 µM |  |  | 
6 | O=[N+]([O-])c1cn2c(n1)OC[C@@H](OCc1ccc(-c3ccc(OC(F)(F)F)cc3)cc1OC(F)(F)F)C2 | 7.5 µM (≈ 3.9 µg/mL) | 0.45 µM (≈ 0.234 µg/mL) | > 128 µM | 97% | 100% | 
7 | O=[N+]([O-])c1cn2c(n1)OC[C@@H](OCc1c(Cl)cc(-c3ccc(OC(F)(F)F)cc3)cc1Cl)C2 | 11 µM (≈ 5.55 µg/mL) | 0.62 µM (≈ 0.313 µg/mL) | > 128 µM | 98% | 93% | 
8 | O=[N+]([O-])c1cn2c(n1)OC[C@@H](OCc1ccc(-c3ccc(C(F)(F)F)nc3)c(F)c1)C2 | 0.9 µM (≈ 0.395 µg/mL) | 0.25 µM (≈ 0.11 µg/mL) | > 128 µM |  |  | 
9 | O=[N+]([O-])c1cn2c(n1)OCC(COc1ccc(-c3ccc(OC(F)(F)F)cc3)nc1)C2 (stereo unspecified) | 6.9 µM (≈ 3.01 µg/mL) | 0.15 µM (≈ 0.0655 µg/mL) | > 128 µM |  |  | 
10 | O=[N+]([O-])c1cn2c(n1)OCC(COCc1ccc(-c3ccc(OC(F)(F)F)cc3)cc1)C2 (stereo unspecified) | > 128 µM | 0.3 µM (≈ 0.135 µg/mL) | > 128 µM |  |  | 
11 | O=[N+]([O-])c1cn2c(n1)OC[C@H](COc1ccc(OC(F)(F)F)cc1)C2 | 9 µM (≈ 3.23 µg/mL) | 0.5 µM (≈ 0.18 µg/mL) | > 128 µM | 90% | 72% | Ratio [12]: 5; Ratio [13]: 2; Ratio [11]: 0.41
12 | O=[N+]([O-])c1cn2c(n1)OC[C@@H](OCc1ccc(-c3ccc(C(F)(F)F)nc3)cc1F)C2 | 0.68 µM (≈ 0.298 µg/mL) | 0.13 µM (≈ 0.057 µg/mL) | > 128 µM | 96% | 78% | Ratio [11]: 13
13 | O=[N+]([O-])c1cn2c(n1)OCC(COCc1ccc(-c3ccc(F)cc3)cc1)C2 (stereo unspecified) | 7.9 µM (≈ 3.03 µg/mL) | 0.47 µM (≈ 0.18 µg/mL) | 24 µM |  |  | 
14 | O=[N+]([O-])c1cn2c(n1)OC[C@@H](OCc1ccc(-c3ccc(OC(F)(F)F)cc3)cc1)C2 |  |  |  |  |  | AUC (Plasma): 198 µg/h/mL; AUC (Lung): 218 µg/h/mL
15 | COc1cc(-c2ccc(OC(F)(F)F)cc2)ccc1CO[C@@H]1COc2nc([N+](=O)[O-])cn2C1 | 5.5 µM (≈ 2.56 µg/mL) | 0.64 µM (≈ 0.298 µg/mL) | > 128 µM | 88% | 87% | 
16 | O=[N+]([O-])c1cn2c(n1)OC[C@@H](OCc1ccc(-c3ccc(OC(F)(F)F)cc3)c(Cl)c1)C2 | 1.5 µM (≈ 0.705 µg/mL) | 0.21 µM (≈ 0.0987 µg/mL) | > 128 µM |  |  | 
17 | O=[N+]([O-])c1cn2c(n1)OCC(COCc1ccc(OC(F)(F)F)cc1)C2 (stereo unspecified) |  |  | 46 µM | 71% | 41% | 

Row | Compound | MIC90 [1] | MIC90 [2] | IC50 (Vero) | remaining at 1 h [3] | remaining at 1 h [4] | also measured
18 | O=[N+]([O-])c1cn2c(n1)OC[C@@H](OCc1ccc(-c3ccc(OC(F)(F)F)cc3)c(F)c1)C2 | 0.51 µM (≈ 0.231 µg/mL) | 0.055 µM (≈ 0.0249 µg/mL) | > 128 µM |  |  | 
19 | O=[N+]([O-])c1cn2c(n1)OCC(COc1ccc(-c3ccc(C(F)(F)F)cc3)nc1)C2 (stereo unspecified) | 1.3 µM (≈ 0.546 µg/mL) | 0.22 µM (≈ 0.0925 µg/mL) | > 128 µM |  |  | 
20 | O=[N+]([O-])c1cn2c(n1)OC[C@@H](OCc1c(F)cc(-c3ccc(OC(F)(F)F)cc3)cc1F)C2 | 1.5 µM (≈ 0.707 µg/mL) | 0.06 µM (≈ 0.0283 µg/mL) | > 128 µM | 95% | 94% | Ratio [11]: 0.98
21 | N#Cc1cc(-c2ccc(C(F)(F)F)nc2)ccc1CO[C@@H]1COc2nc([N+](=O)[O-])cn2C1 | 1.1 µM (≈ 0.49 µg/mL) | 0.28 µM (≈ 0.125 µg/mL) | > 128 µM |  |  | 
22 | N#Cc1cc(-c2ccc(OC(F)(F)F)cc2)ccc1CO[C@@H]1COc2nc([N+](=O)[O-])cn2C1 | 0.45 µM (≈ 0.207 µg/mL) | 0.053 µM (≈ 0.0244 µg/mL) | > 128 µM | 91% | 88% | Ratio [11]: 2.9
23 | O=[N+]([O-])c1cn2c(n1)OCC(COc1ccc(-c3ccc(F)cc3)cc1)C2 (stereo unspecified) | 108 µM (≈ 39.9 µg/mL) | 0.03 µM (≈ 0.0111 µg/mL) | > 128 µM |  |  | 
24 | O=[N+]([O-])c1cn2c(n1)OC[C@@H](OCc1ccc(OC(F)(F)F)cc1)C2 [PRETOMANID] | 2.6 µM (≈ 0.934 µg/mL) | 0.5 µM (≈ 0.18 µg/mL) |  | 82% |  | 
25 | O=[N+]([O-])c1cn2c(n1)OCC(COc1ccc(OC(F)(F)F)cc1)C2 (stereo unspecified) |  |  | > 128 µM |  |  | 
26 | O=[N+]([O-])c1cn2c(n1)OCC(COc1ccc(-c3ccc(OC(F)(F)F)cc3)cn1)C2 (stereo unspecified) | 100 µM (≈ 43.6 µg/mL) | 0.045 µM (≈ 0.0196 µg/mL) | > 128 µM |  |  | 
27 | O=[N+]([O-])c1cn2c(n1)OCC(COc1ccc(-c3ccc(OC(F)(F)F)cc3)cc1)C2 (stereo unspecified) | > 128 µM | 0.14 µM (≈ 0.061 µg/mL) | > 128 µM | 100% | 93% | Ratio [11]: 2
28 | O=[N+]([O-])c1cn2c(n1)OCC(COCc1ccc(-c3ccc(C(F)(F)F)cc3)cc1)C2 (stereo unspecified) | > 128 µM | 0.49 µM (≈ 0.212 µg/mL) | 38 µM |  |  | 
29 | O=[N+]([O-])c1cn2c(n1)OC[C@@H](OCc1c(F)cc(-c3ccc(C(F)(F)F)nc3)cc1F)C2 | 2.9 µM (≈ 1.32 µg/mL) | 0.35 µM (≈ 0.16 µg/mL) | 43 µM |  |  | 
30 | O=[N+]([O-])c1cn2c(n1)OC[C@@H](OCc1ccc(-c3ccc(OC(F)(F)F)cc3)cc1Cl)C2 | 1.6 µM (≈ 0.752 µg/mL) | 0.17 µM (≈ 0.0799 µg/mL) | > 128 µM | 99% | 100% | Ratio [11]: 2.1
31 | O=[N+]([O-])c1cn2c(n1)OC[C@@H](COc1ccc(OC(F)(F)F)cc1)C2 | 1.9 µM (≈ 0.683 µg/mL) | 0.23 µM (≈ 0.0826 µg/mL) | > 128 µM | 91% | 80% | Ratio [12]: 5; Ratio [13]: 2; Ratio [11]: 0.7
32 | O=[N+]([O-])c1cn2c(n1)OC[C@@H](OCc1ccc(-c3ccc(C(F)(F)F)cn3)cc1F)C2 | 2.3 µM (≈ 1.01 µg/mL) | 0.055 µM (≈ 0.0241 µg/mL) | > 128 µM | 90% | 77% | Ratio [11]: 51
33 | O=[N+]([O-])c1cn2c(n1)OC[C@@H](OCc1ccc(-c3ccc(OC(F)(F)F)cc3)c[n+]1[O-])C2 | 32 µM (≈ 14.5 µg/mL) | 0.05 µM (≈ 0.0226 µg/mL) | > 128 µM |  |  | 
34 | O=[N+]([O-])c1cn2c(n1)OCC(COc1ccc(-c3ccc(C(F)(F)F)cc3)cc1)C2 (stereo unspecified) | 100 µM (≈ 41.9 µg/mL) | 0.035 µM (≈ 0.0147 µg/mL) | > 128 µM |  |  | 
